Source: US12435080B2, “sGC stimulators” (Tisento Therapeutics Inc., priority 2016, dated 2025)
“And” between values parts separate entries of the source, which are not always exact repeats. Identical values can stand only once.

Target: T1, sGC enzyme (Homo sapiens, UniProt Q02108+Q02153)
T1 construct: incorporated into these cells detect cGMP formed by the compounds stimulating the sGC enzyme; host or cells: HEK293 cells stably expressing GloSensor 40F cGMP biosensor
T1 sequence (Q02153 1-619): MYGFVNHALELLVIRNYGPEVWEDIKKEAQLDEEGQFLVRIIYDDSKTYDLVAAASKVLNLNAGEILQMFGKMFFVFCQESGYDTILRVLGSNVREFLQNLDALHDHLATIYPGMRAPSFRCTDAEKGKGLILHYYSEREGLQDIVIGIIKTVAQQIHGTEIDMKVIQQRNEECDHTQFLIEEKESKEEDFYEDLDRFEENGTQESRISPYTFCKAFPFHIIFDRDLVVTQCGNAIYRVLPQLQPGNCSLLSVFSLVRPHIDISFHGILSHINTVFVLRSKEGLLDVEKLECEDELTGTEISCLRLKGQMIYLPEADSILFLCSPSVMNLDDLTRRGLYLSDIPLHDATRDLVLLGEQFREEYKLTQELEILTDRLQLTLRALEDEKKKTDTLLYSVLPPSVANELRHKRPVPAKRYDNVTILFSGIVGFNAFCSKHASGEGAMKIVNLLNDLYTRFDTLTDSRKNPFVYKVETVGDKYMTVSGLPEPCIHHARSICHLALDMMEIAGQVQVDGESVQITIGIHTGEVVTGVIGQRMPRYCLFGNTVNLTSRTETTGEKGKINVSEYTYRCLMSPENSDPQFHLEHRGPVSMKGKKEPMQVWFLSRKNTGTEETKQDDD
T1 sequence (Q02108 1-690): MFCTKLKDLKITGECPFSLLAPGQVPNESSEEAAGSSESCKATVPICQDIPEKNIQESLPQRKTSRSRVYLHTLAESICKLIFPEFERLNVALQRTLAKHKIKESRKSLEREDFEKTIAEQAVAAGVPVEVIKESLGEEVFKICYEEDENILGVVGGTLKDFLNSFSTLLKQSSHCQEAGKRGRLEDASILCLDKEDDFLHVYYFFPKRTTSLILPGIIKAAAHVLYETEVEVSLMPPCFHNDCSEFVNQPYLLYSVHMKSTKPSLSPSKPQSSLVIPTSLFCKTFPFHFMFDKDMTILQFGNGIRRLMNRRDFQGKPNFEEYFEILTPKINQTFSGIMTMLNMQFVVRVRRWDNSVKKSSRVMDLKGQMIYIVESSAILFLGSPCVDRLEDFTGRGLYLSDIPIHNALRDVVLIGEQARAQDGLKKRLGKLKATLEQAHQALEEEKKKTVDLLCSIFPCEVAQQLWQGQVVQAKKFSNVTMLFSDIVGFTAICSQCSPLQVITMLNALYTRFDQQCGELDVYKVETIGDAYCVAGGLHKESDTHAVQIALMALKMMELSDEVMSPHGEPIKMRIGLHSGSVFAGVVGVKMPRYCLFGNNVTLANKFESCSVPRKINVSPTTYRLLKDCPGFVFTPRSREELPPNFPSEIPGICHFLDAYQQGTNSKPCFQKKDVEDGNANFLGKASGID
Experiment: cGMP GloSensor cell-based assay, 384-well format
Settings: HEK293 cells expressing GloSensor 40F cGMP; 10 μM DETA-NONOate; normalized to 30 μM Compound Y; compounds in Table IA; read-out: Glo-sensor AbsEC50
Procedure, shortened: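 HEK293 cells expressing GloSensor 40F cGMP luciferase biosensor, preloaded with 2 mM GloSensor substrate for 90 min at 25 °C. Endpoint luminescence read after 55 min compound incubation at room temperature.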

Row | EC50 | Compound
1 | 100 to 1000 nM and < 100 nM | Fc1cccc(Cn2nc(-c3nc(C(F)(F)F)n[nH]3)c3cccnc32)c1F [Compound I-48, 1-(2,3-Difluorobenzyl)-3-(3-(trifluoromethyl)-1H-1,2,4-triazol-5-yl)-1H-pyrazolo[3,4-b]pyridine]
2 | < 100 nM | Fc1cccc(Cn2nc(-c3nc(Cl)n[nH]3)c3cccnc32)c1F [Compound I-86, 3-(3-Chloro-1H-1,2,4-triazol-5-yl)-1-(2,3-difluorobenzyl)-1H-pyrazolo[3,4-b]pyridine]
3 | < 100 nM | Fc1ccccc1Cn1nc(-c2nc(C3CC3(F)F)n[nH]2)c2cccnc21 (stereo not drawn) [Compound I-96, 3-(3-(2,2-Difluorocyclopropyl)-1H-1,2,4-triazol-5-yl)-1-(2-fluorobenzyl)-1H-pyrazolo[3,4-b]pyridine]
4 | < 100 nM | N#Cc1n[nH]c(-c2nn(Cc3ccccc3F)c3ncccc23)n1 [Compound I-41]
5 | < 100 nM | OCc1n[nH]c(-c2nn(Cc3ccccc3F)c3ncccc23)n1 [Compound I-64, (5-(1-(2-fluorobenzyl)-1H-pyrazolo[3,4-b]pyridin-3-yl)-1H-1,2,4-triazol-3-yl)methanol]
6 | 100 to 1000 nM | FC(F)(F)c1n[nH]c(-c2nn(CCC(F)(F)C(F)(F)F)c3ncccc23)n1 [Compound I-2, 1-(3,3,4,4,4-pentafluorobutyl)-3-(3-(trifluoromethyl)-1H-1,2,4-triazol-5-yl)-1H-pyrazolo[3,4-b]pyridine]

More lines, now with the values behind:

Row | Compound | EC50
7 | Cc1ncc(Cn2nc(-c3nc(C(F)(F)F)n[nH]3)c3ccccc32)cn1 [Compound I-62, 1-((2-methylpyrimidin-5-yl)methyl)-3-(3-(trifluoromethyl)-1H-1,2,4-triazol-5-yl)-1H-indazole] | < 100 nM
8 | Fc1cccc(Cc2nn(-c3nc(C(F)(F)F)n[nH]3)c3cccnc23)c1F [Compound I-105, 3-(2,3-Difluorobenzyl)-1-(3-(trifluoromethyl)-1H-1,2,4-triazol-5-yl)-1H-pyrazolo[4,3-b]pyridine] | < 100 nM
9 | Fc1ccccc1Cc1nn(-c2nc(C(F)(F)F)n[nH]2)c2cccnc12 [Compound I-31, 3-(2-Fluorobenzyl)-1-(3-(trifluoromethyl)-1H-1,2,4-triazol-5-yl)-1H-pyrazolo[4,3-b]pyridine] | 100 to 1000 nM
10 | Fc1ccccc1Cc1nn(-c2nc(C(F)F)n[nH]2)c2cccnc12 [Compound I-101, 1-(3-(Difluoromethyl)-1H-1,2,4-triazol-5-yl)-3-(2-fluorobenzyl)-1H-pyrazolo[4,3-b]pyridine] | < 100 nM
11 | FC(F)(F)c1n[nH]c(-c2nn(Cc3ccccc3)c3ncccc23)n1 [Compound I-49, 1-Benzyl-3-(3-(trifluoromethyl)-1H-1,2,4-triazol-5-yl)-1H-pyrazolo[3,4-b]pyridine] | < 100 nM
12 | FC(F)(F)c1n[nH]c(-c2nn(Cc3cncnc3)c3ncccc23)n1 [Compound I-4, 1-(Pyrimidin-5-ylmethyl)-3-(3-(trifluoromethyl)-1H-1,2,4-triazol-5-yl)-1H-pyrazolo[3,4-b]pyridine] | < 100 nM
